From a melting point compilation (Tetko et al.; mined from patent text by program, amines drawn as free bases though some values may be those of a salt) come the findings set out here.

`CC(C)(C)C(O)C(Oc1ccccc1)n1ccnc1` (stereo not drawn) had a melting point of 99 to 105 °C.

With `CCCCC1Sc2c(cc(OC)c(Cl)c2Cl)C1O` (stereo not drawn), the melting point lay in the range of 95 to 96 °C. In the case of `CCC(CC)Nc1c([N+](=O)[O-])cc(C)c(COC(C)=O)c1[N+](=O)[O-]` it was 47 to 49 °C. As for `COc1ccc2c(=O)c3c(OC)cccc3oc2c1OC`, the melting point was in the range of 145 to 146 °C.

Compound `OC1CSC(Oc2cnc(Cl)c(F)c2)C(O)C1O` (stereo not drawn) yielded a melting point of 198 to 200 °C.

`O=[N+]([O-])c1c(C2C=CCCC2)ccnc1Cl` (stereo not drawn) returned a melting point of 54.5 to 55.4 °C. In the case of `Cc1[nH]c(C=O)c(C)c1CNC(=O)C(F)(F)F` it was 200 °C; in that of `O=C(O)C=C(c1ccccc1)c1ccccc1`, 162 to 164 °C; in that of `CCn1c(=O)[nH]c2c3ccccc3ccc21`, 240 to 242 °C.

Take `Cc1c2c(c3ccccc3c1NC(=O)CC(C)(C)C)OCC2c1ccc(C(C)C)cc1` (stereo not drawn): the melting point was in the range of 183 to 184 °C.

Consider `Cc1ccc(C(=O)OC2CCN(Cc3ccccc3)CC2)cc1`, for which the melting point lay in the range of 73 to 74 °C. In the case of `Cc1[nH]cnc1CSCCNC(=O)NCCCCN(C)CCC(c1ccc(Cl)cc1)c1ccccn1` (stereo not drawn) it was 97 to 98 °C.

Turning to `CC12C=CC(=O)CC1CCC1C2CCC2(C)C(C(=O)NC3(C#N)CCCCC3)CCC12` (stereo not drawn), the melting point is 292 to 300 °C. The value for `CC(C)c1cccc(C(C)C)c1NC(=O)NCC1(c2ccc(N(C)C)cc2)CCCC1` was 132 to 133 °C. The value for `COc1ccccc1Oc1c(NS(=O)(=O)c2c(C)noc2C)nc(N2CCOCC2)nc1OCCO` was 144 to 147 °C; that for `CCN(CC)C(=O)Oc1nc(C)c2cc(OC)c(OC)cc2c1N` was 206 to 207 °C; that for `O=S(=O)(Oc1cccc(OCCC(c2ccccc2)(c2ccccc2)c2ccccc2)c1)c1ccccc1` was 124 to 125 °C. The compound `COCOc1c(N=Nc2ccc(OC)cc2)cc(OC)cc1C(C)(C)C` yielded a melting point of 102 to 103 °C. The value for `COc1ccc(NC(=O)c2c[nH]c3c2C(=O)CC(C)(C)C3)c(F)c1` was 203 to 205 °C; that for `C=C(C)C(=O)NCCNC(=O)c1ccc2ccccc2c1O` was 167 to 169 °C; that for `COc1ccc2c(C=O)cccc2c1C(F)(F)F` was 92 to 94 °C.

`CCOC(=O)N1CC[C@@H](O)[C@H](c2ccccc2)C1` (relative stereo) displayed a melting point of 49.5 to 58 °C. Turning to `Cc1cc(C)cc(C(=O)Cc2ccncc2)c1`, the melting point was in the range of 90 to 91 °C. In the case of `CCOc1ccc2c(c1)C(=O)N(c1ccc3c(ccn3C)c1)C2` it was 185 to 190 °C; in that of `N#CC[C@H]1CCn2c(cc3ccccc32)C1`, 100 to 101 °C; in that of `O=C1c2cc3ccccc3c(-c3ccccc3)c2C(=O)N1C1CC1`, 198 °C. The value for `CC(C)(C)OC(=O)NC(CCO)C(=O)OC(c1ccccc1)c1ccccc1` (racemic) was 125 to 129 °C.

Consider `COc1nc(C(=O)NS(=O)(=O)c2c(Cl)cccc2Cl)cs1`, for which the melting point is 162 to 165 °C.

For `CCn1nc(C)c2c(Cl)c(CO)cnc21`, the melting point lay in the range of 119 to 121 °C. On to `CN(C)C=Nc1c(Cl)cc(N=Cc2ccc3c(c2)OCO3)cc1Cl`, for which the melting point was 155 to 156 °C. Turning to `Cc1cc(C)c(N2CCCc3c2nn(C)c3N)c(Cl)c1`, the melting point lay in the range of 234 to 236 °C. In the case of `Cn1nc(-c2ccc(Cl)cc2)c2ccccc2c1=O` it was 151 to 152 °C; in that of `CP(C)(=O)CN1CCN(c2n[nH]c3ccccc23)CC1`, 223 to 225 °C; in that of `Cc1nnc(NC(C)C)s1`, 145 °C. The compound `COc1ccc(CNc2nc(N(C)CCO)ncc2C(=O)c2cc(OC)c(OC)c(OC)c2)cc1Cl` showed a melting point of 166 to 168 °C. As for `CC1(C(=O)Nc2ccc(C3=NNC(=O)C4CC34)cc2)CC1` (stereo not drawn), the melting point lay in the range of 253 to 255 °C. In the case of `CC(C)(C)C(=O)c1c[nH]c2ncc(C3=C(c4ccccc4)CCC3)nc12` it was 207 to 209 °C. The value for `O=c1[nH]c2cccc(C3CCCNC3)c2[nH]1` (stereo not drawn) was 260 °C; that for `CC(C)(C)CC(=O)N1C[C@@H](c2c[nH]c3ccccc23)[C@H](c2cn3c4c(cccc24)CCC3)C1` was 202 to 204 °C; that for `CN(c1ccc(OC(F)(F)F)cc1)C1CCN(C[C@@]2(C)Cn3cc([N+](=O)[O-])nc3O2)CC1` was 133 to 134 °C. The value for `CC(C)(C)c1cc(C(=O)NCCOC(=O)c2cc(C(C)(C)C)c(O)c(C(C)(C)C)c2)cc(C(C)(C)C)c1O` was 185 to 187 °C. Take `CCCc1nc2c(C)cccc2n1Cc1ccc(-c2ccccc2-c2nnn[nH]2)nc1`: the melting point lay in the range of 169 to 170 °C.

In turn, `NS(=O)(=O)c1ccsc1C1=NOCCO1` registered a melting point of 180 °C.

`CCOC(=O)N1CCN(c2c(F)cc([N+](=O)[O-])c(NC3CC3)c2C)CC1` displayed a melting point of 97 to 98 °C. The compound `Cc1cccc(C(=O)NNC(=O)c2ccccc2Cc2ccccc2)c1` yielded a melting point of 149 to 150 °C. In the case of `CCOC(=O)C(=O)N1CCC(Cc2ccc(C(C)(C)C)cc2)CC1` it was 168 °C; in that of `COC(=O)c1ccccc1-c1n[nH]c(-c2cccc(C(F)(F)F)c2)n1`, 110 to 112 °C. The value for `CCOc1nc(C)nc(N2CCc3ccccc3CC2)c1[N+](=O)[O-]` was 145 to 147 °C. On to `N#Cc1cnc2cc3ccccc3cc2c1Cl`, for which the melting point was in the range of 253 to 255 °C. The value for `O=c1c2ccc([N+](=O)[O-])cc2nc(C(S)c2ncnc3[nH]cnc23)n1-c1ccccc1Cl` (stereo not drawn) was 218 °C; that for `CCCN=C(N)Nc1ccnc(CCCCc2ncc(CC)c(O)n2)n1` was 140 to 142 °C. In the case of `CCCCCS(=O)(=O)NC(=O)CCc1cc(-c2ccccc2)nn1Cc1ccc(Cl)cc1Cl` it was 145 to 147 °C; in that of `CC(C)(C)CC(C)(C)c1ccc(OCCOCCO)c(O)c1`, 112 to 113 °C; in that of `CSc1ccc2ccc(N)nc2n1`, 158 °C. For `O=C1NCC(c2c[nH]c3ccccc23)C1c1cn2c3c(cccc13)CCC2` (stereo not drawn), the melting point lay in the range of 241 to 243 °C. In the case of `O=C(O)CCc1cc(OCc2cc(COc3ccc(Cl)cc3Cl)cc(OCc3ccccc3)c2)nn1-c1ccccc1` it was 126 to 130 °C; in that of `N#CC(C#N)=C1CC(=C(C#N)C#N)c2ccccc21`, 224 to 228 °C; in that of `COC(=O)CC(Nc1ccccc1OC)c1cc2ccccc2nc1Cl` (stereo not drawn), 135 to 137 °C. In the case of `CC(=O)Oc1cc(C)ccc1C1CCN(CCCCNC(=O)c2ccc(NC(=O)c3ccc(Cl)cc3)cc2)CC1` it was 210 °C; in that of `CCCc1nc(SC)nc(O)c1Cc1ccc(-c2ccccc2C#N)cc1`, 218 °C; in that of `CC(C)c1ccc(C(=O)C2=C(O)C(=O)N(c3ncc(S(=O)(=O)c4ccc([N+](=O)[O-])cc4)s3)C2c2ccc(C(F)(F)F)cc2)cc1` (stereo not drawn), 300 to 302 °C.

Take `CCn1c(=O)c2nc(C=O)cn2c2ccccc21`: the melting point is 302 to 306 °C.

Compound `O=C(O)COc1c(Br)cc(-c2c3ccccc3c(Br)c3oc4ccccc4c23)c(O)c1Br` showed a melting point of 194 to 240 °C. The value for `CC(C)C(=O)NCC(C)(C)N` was 134 to 138 °C.

In the case of `C=CCn1nc(-c2cc(C(C)(C)C)c(O)c(C(C)(C)C)c2)c2cccnc21`, the melting point lay within 120 to 123 °C.

`COc1ccc(C2=C(C#N)C(c3ccccc3OC)c3c[nH]nc3N2)cc1` (stereo not drawn): the melting point worked out at 149 °C. In turn, `Cc1ccccc1Nc1cccc(-c2ccccc2)c1CN` registered a melting point of 103 to 105 °C. In the case of `CCc1ccc(N2CCCN(c3cc[nH]c(=S)c3C#N)CC2)cc1` it was 226 to 229 °C; in that of `CC[C@@H]1N(c2ccc(C#N)c(C(F)(F)F)c2)C(=O)C[C@]1(C)O`, 137 to 139 °C; in that of `C=C(C)C(=O)OCCOC(=O)C(=O)OCc1ccc(OCc2ccccc2)cc1`, 40 to 42 °C. In the case of `Cn1c(C(F)(F)F)ccc(-c2c(F)cc(Cl)c3oc(CO)cc23)c1=O` it was 145 to 147 °C.

With `COc1ccc(C(=O)Cn2c(-n3ccc(N)n3)nc3ccccc32)cc1`, the melting point was 136 to 140 °C. In the case of `Cc1ccc(-c2c(F)c(F)c3c(=O)c(C(=O)O)cn(C4CC4)c3c2F)c(C)n1` it was 264 to 266 °C; in that of `CCCc1cc(=O)oc2cc(O)cc(O)c12`, 227 to 229 °C; in that of `O=C(Nc1ccccc1C(=O)N1CCCCC1)N[C@@H](Cc1ccc(NC(=O)c2c(Cl)cccc2Cl)cc1)C(=O)O`, 191 °C. Turning to `ClC(Cl)(Cl)c1nc2ncccc2[nH]1`, the melting point is 210 °C. Compound `O=C1[C@H]2Cc3c([nH]c4ccccc34)[C@@H](c3ccc4c(c3)OCO4)N2C(=O)C2CNCCN12` (stereo partly drawn) yielded a melting point of 226 to 237 °C. `Cn1c(=O)[nH]c(=O)n(-c2cc(N)c(F)cc2Cl)c1=O` yielded a melting point of 244 to 245 °C. In the case of `COc1ccc(CCC(=O)Nc2c(C)c(C)c3c(c2C)C(c2ccc(C(C)C)cc2)C(C)(C)O3)cc1` (stereo not drawn) it was 188 to 191 °C; in that of `O=C(CCN1CCN(c2cccc3[nH]ccc23)CC1)c1csc2ccc(F)cc12`, 76 to 78 °C; in that of `O=S(=O)(Cl)c1ccc(Oc2ccc(Br)cc2)cc1`, 80.9 °C.

`COc1ccc2c(c1)c(CC(=O)N(O)C1CCCCC1)c(C)n2C(=O)c1ccc(Cl)cc1` returned a melting point of 208 to 210 °C. In the case of `O=c1oc(=O)n(Cc2ccco2)c2ccccc12` it was 131 to 133 °C; in that of `CCCCCCC1CCC(O)C(=O)O1` (stereo not drawn), 75.5 to 77 °C. The compound `Cc1noc(NS(=O)(=O)c2ccc(Cl)cc2Cl)c1Br` yielded a melting point of 138 to 141 °C. The value for `COC(=O)C(=O)CC(=O)c1ccc(Cc2ccc(Cl)c(Cl)c2)cc1` was 104 to 106 °C; that for `CC(=O)CCS(=O)(=O)c1ccc(C=C(C)c2ccc3c(c2)C(C)(C)CCC3(C)C)cc1` was 135 to 136 °C.

Take `CC(C)c1nn(-c2ccc(Cl)cc2NO)c(=O)o1`: the melting point worked out at 129 °C.
